From US20200016231A1, “BIOFILM DISRUPTING COMPOSITION” (Whiteley Corporation Pty Ltd, priority 2016, published 2020)
Read-outs that look alike come from different tables or passages of the source.

Test system: Multidrug resistant Acinetobacter Baumannii, (MRAB)
Test: microbe, parasite or virus in culture

Work on `NCC[C@H](O)C(=O)N[C@@H]1C[C@H](N)[C@@H](O[C@H]2O[C@H](CN)[C@@H](O)[C@H](O)[C@H]2O)[C@H](O)[C@H]1O[C@H]1O[C@H](CO)[C@@H](O)[C@H](N)[C@H]1O` [AMI, Amikacin] yielded a viability at 4 µg/mL (read-out: % bacterial viability, MRAB 1 014754 Urine, AMI 4 μg/ml) of 35.9%, a viability at 12 µg/mL (read-out: % bacterial viability, MRAB 1 014754 Urine, AMI 12 μg/ml) of 24.5% and a viability at 20 µg/mL (read-out: % bacterial viability, MRAB 1 014754 Urine, AMI 20 μg/ml) of 14.7%. It also gave a viability at 4 µg/mL (read-out: % bacterial viability, MRAB 2 014801 Catheter, AMI 4 μg/ml) of 36%, a viability at 12 µg/mL (read-out: % bacterial viability, MRAB 2 014801 Catheter, AMI 12 μg/ml) of 14.1% and a viability at 20 µg/mL (read-out: % bacterial viability, MRAB 2 014801 Catheter, AMI 20 μg/ml) of 8.36%. It also gave a viability at 4 µg/mL (read-out: % bacterial viability, MRAB 3 015069 Skin, AMI 4 μg/ml) of 66.6%, a viability at 12 µg/mL (read-out: % bacterial viability, MRAB 3 015069 Skin, AMI 12 μg/ml) of 48.6% and a viability at 20 µg/mL (read-out: % bacterial viability, MRAB 3 015069 Skin, AMI 20 μg/ml) of 41.7%. The viability at 4 µg/mL (read-out: % bacterial viability, MRAB 4 015095 Hospital Environ, AMI 4 μg/ml) was 66.4%, the viability at 12 µg/mL (read-out: % bacterial viability, MRAB 4 015095 Hospital Environ, AMI 12 μg/ml) was 42.9% and the viability at 20 µg/mL (read-out: % bacterial viability, MRAB 4 015095 Hospital Environ, AMI 20 μg/ml) was 33.9%. For the same molecule, the viability at 4 µg/mL (read-out: % bacterial viability, MRAB 5 015103 Hospital Environ, AMI 4 μg/ml) was 65.2%, the viability at 12 µg/mL (read-out: % bacterial viability, MRAB 5 015103 Hospital Environ, AMI 12 μg/ml) was 26.9% and the viability at 20 µg/mL (read-out: % bacterial viability, MRAB 5 015103 Hospital Environ, AMI 20 μg/ml) was 24.6%. The viability at 4 µg/mL (read-out: % bacterial viability, MRAB 12 016419 Catheter, AMI 4 μg/ml) was 49.7%, the viability at 12 µg/mL (read-out: % bacterial viability, MRAB 12 016419 Catheter, AMI 12 μg/ml) was 22.7% and the viability at 20 µg/mL (read-out: % bacterial viability, MRAB 12 016419 Catheter, AMI 20 μg/ml) was 19.8%.
